In patent publication US10017509B2, “Macrocylic pyrimidine derivatives” (Janssen Pharmaceutica NV, priority 2014, dated 2018):

How the values were obtained:
EF2K [1] = molecular target: T1, EF2K (Homo sapiens, UniProt O00418); test: Biochemical EF2K lysate-based kinase assay (AlphaLISA p-eEF2 Thr56); conditions: pIC50 = -log IC50 (M), read-out: eEF2K_C_alphalisa pIC50 (converted)
T1 construct: host or cells: LN-229 cell lysate
T1 sequence (O00418 1-725): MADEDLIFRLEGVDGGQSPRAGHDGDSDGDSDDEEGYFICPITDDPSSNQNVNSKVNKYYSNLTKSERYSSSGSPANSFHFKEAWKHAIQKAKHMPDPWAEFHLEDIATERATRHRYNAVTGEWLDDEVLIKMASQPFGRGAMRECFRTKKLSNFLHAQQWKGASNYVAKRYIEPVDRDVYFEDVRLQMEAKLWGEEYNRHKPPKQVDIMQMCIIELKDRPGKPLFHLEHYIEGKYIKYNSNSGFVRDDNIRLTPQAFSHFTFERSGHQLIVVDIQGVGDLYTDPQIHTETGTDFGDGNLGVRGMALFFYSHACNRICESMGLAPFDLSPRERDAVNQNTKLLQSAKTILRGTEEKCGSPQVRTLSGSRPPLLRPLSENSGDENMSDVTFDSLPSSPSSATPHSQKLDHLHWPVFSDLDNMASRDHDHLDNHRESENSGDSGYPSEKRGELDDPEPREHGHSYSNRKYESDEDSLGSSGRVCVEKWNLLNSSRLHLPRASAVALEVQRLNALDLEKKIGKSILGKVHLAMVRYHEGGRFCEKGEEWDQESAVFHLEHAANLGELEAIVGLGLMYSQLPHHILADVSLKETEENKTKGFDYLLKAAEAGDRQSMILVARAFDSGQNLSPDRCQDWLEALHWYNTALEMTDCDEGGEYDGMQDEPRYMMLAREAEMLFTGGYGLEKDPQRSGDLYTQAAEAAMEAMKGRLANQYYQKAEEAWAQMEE
Excerpt: Biochemical EF2K Lysate-Based Kinase Assay
LN-229 cells were purchased from ATCC (CRL-2611); these are glioblastoma cells. Cell lysates from LN229 were used in this kinase assay to provide both the kinase and the substrate (EF2). The AlphaLISA p-eEF2 (Thr56) detection assay was developed using a sandwich assay format with two specific antibodies recognizing different epitopes of the target, including one antibody against the phosphorylation site of interest. One anti-eEF2 antibody was conjugated onto AlphaLISA Acceptor beads, while the second antibody was biotinylated and captured by streptavidin coated Donor beads.
Compound was mixed with LN-229 cell lysates in the presence of a kinase buffer (e.g. HEPES) at a pH of 6.6, containing 10 mM Mg^2+ (e.g. magnesium acetate) and 10 mM adenosine-tri-phosphate (ATP) and incubated at room temperature for 15 minutes. The kinase reaction was stopped with excess ethylenediaminetetraacetic acid disodium salt and the biotinylated-anti phospho eEF2 antibody (3 nM) was added for 1 hour. Then the anti-EF2 acceptor beads (10 μg/ml) as well as the streptavidin coated donor beads (20 μg/ml) were added for 1 hour, and the AlphaLISA signal was measured in an Envision instrument once, left overnight, and measured again for the final read.
(§1) (pIC50 is −log IC50 where IC50 represents the concentration expressed in M at which the test compound gives 50% inhibition)

EF2K [2] = molecular target: T1, EF2K; test: EF2K cell-based assay (P-EF2 AlphaLISA, 2-deoxyglucose stimulated MCF10A cells); conditions: 2.5 mM 2-deoxyglucose stimulated, P-EF2 Thr56, pIC50 = -log IC50 (M), read-out: eEF2K_C_PThr56 pIC50 (converted)
Description: In this assay, 2.5 mM 2-deoxyglucose was used to deplete intracellular ATP and activate 5′ adenosine monophosphate-activated protein kinase (AMPK) in the immortalized epithelial breast cell lines, MCF10A. MCF 10A cells were purchased from ATCC (CRL-10317).
MCF10A cells are seeded at a density of 1.25×10^5 Cells/ml at 100 μl/well in a 96-well plate and incubated for 24 hours (37° C., 5% CO2). Compound is added for 1 hour, and cell are stimulated with 2.5 mM of 2-deoxy-glucose for 4 hours. Medium is then removed, and cells are lysed in an ice-cold buffer M-PER (Thermo Scientific, 78501), containing protease and phosphatase inhibitors. P-EF2 levels are determined in these lysates using the P-EF2 AlphaLISA described above.
as §1

[3] = molecular target: Vps34 (PIK3C3 lipid kinase) (Homo sapiens, UniProt Q8NEB9); test: Biochemical Vps34 lipid kinase assay (ADP-Glo); conditions: for remaining activity at 1 µM: 1 h, read-out: VPS34_1microM_% of cntrl; for remaining activity at 1 µM / VPS34_1microM_% of cntrl: single dose 1 μM compound, residual activity compared to control (DMSO); for IC50: serial half-log dilution 10 μM to 0.3 nM, pIC50 = -log IC50 (M)
Description: Biochemical Vps34 Lipid Kinase Assay
A non-radiometric kinase assay (ADP-Glo™ Assay, Promega, Madison, Wi, USA) was used for measuring the kinase activity of the PIK3C3 lipid kinase. All kinase assays were performed in 96-well half-area microtiter plates in a 25 μl reaction volume. The reaction cocktail was pipetted in 3 steps in the following order: • 10 μl of ATP solution (in assay buffer, see below) • 5 μl of test sample in 5% DMSO 10 μl of enzyme/substrate mixture
All lipid kinase assays contained 50 mM HEPES (4-(2-hydroxyethyl)-1-piperazineethanesulfonic acid)-NaOH, pH 7.5, 1 mM EGTA ((ethylene glycol tetraacetic acid), 100 mM NaCl, 0.03% CHAPS (3-[(3-Cholamidopropyl)dimethylammonio]-1-propanesulfonate), 2 mM DTT (Dithiothreitol), 20 μM ATP (corresponding to the apparent ATP-Km), kinase (7.6 nM) and substrate (50 μM). The assay for PIK3C3 additionally contained 3 mM MnCl2.
The reaction cocktails were incubated at 30° C. for 60 minutes. The reaction was stopped with 25 μl ADP-Go™ reagent per well. Plates were incubated for 40 minutes at room temperature, followed by addition of 50 μl kinase detection reagent per well and incubation for 60 minutes at room temperature. Signal was determined with a microplate luminescence reader (Victor, Perkin Elmer). The assay was either performed using a single dose of compound (1 μM final concentration in the assay reaction) with resulting data expressed as residual activity compared to control (DMSO), or using a serial (half-log) dilution of compounds starting at 10 μM and down to 0.3 nM (final concentrations in the assay) with data expressed as the pIC50.
as §1

Chain of Vps34 (PIK3C3 lipid kinase) (Q8NEB9 whole entry, species assumed): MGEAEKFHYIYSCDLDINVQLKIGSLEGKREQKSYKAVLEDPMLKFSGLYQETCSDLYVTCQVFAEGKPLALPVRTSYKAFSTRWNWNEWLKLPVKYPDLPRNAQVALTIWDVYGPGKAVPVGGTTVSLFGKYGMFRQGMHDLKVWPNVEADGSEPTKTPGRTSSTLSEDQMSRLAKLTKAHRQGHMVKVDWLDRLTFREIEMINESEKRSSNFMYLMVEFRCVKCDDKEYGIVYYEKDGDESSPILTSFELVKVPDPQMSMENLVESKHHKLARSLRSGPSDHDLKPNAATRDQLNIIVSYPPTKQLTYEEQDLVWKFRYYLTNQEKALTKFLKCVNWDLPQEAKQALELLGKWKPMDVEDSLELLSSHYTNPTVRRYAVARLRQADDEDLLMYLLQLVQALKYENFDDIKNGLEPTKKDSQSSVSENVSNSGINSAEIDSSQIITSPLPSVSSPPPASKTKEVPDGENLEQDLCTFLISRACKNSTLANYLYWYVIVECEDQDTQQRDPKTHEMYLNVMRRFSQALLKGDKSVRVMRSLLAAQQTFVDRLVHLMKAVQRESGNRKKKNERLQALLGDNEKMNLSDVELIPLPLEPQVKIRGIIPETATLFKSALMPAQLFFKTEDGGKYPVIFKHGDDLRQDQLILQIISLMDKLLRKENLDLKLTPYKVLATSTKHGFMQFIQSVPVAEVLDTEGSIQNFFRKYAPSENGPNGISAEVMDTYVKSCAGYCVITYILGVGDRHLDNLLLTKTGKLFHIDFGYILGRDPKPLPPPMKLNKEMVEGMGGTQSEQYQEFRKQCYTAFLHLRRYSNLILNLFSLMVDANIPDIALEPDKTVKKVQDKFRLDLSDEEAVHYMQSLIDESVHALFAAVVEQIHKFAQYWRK

CN(C)CCOCC1CN2CCN1Cc1cccc(c1)Nc1nccc(n1)-c1ccc(nc1)N(C)CCCN(C)C(=O)C2 (stereo not drawn) [Compound 108]
IC50 (EF2K [1]): 2.09e-07 M
IC50 (EF2K [2]): 2.45e-05 M
remaining activity at 1 µM [3]: 25.5%
IC50 [3]: 5.25e-07 M

CN1CCCN(C)c2ncc(cn2)-c2ccnc(n2)Nc2cccc(c2)CN2CCN(CC2)CC1=O [Compound 84]
IC50 (EF2K [1]): 2.88e-07 M
IC50 (EF2K [2]): 8.71e-06 M
remaining activity at 1 µM [3]: 30.6%

CN1CCCNC(=O)CN2CCN(CC2=O)Cc2cccc(c2)Nc2nccc(n2)-c2ccc1nc2 [Compound 78]
IC50 (EF2K [1]): 1.2e-06 M
IC50 (EF2K [2]): > 3.02e-05 M
remaining activity at 1 µM [3]: 7.48%
IC50 [3]: 1.32e-07 M

CN1CCCN(C)c2ccc(cn2)-c2ccnc(n2)Nc2cccc(c2)N2CCN(CC2)CC1=O [Compound 110]
IC50 (EF2K [1]): 1.48e-06 M
IC50 (EF2K [2]): > 3.02e-05 M
remaining activity at 1 µM [3]: 7.68%
IC50 [3]: 3.47e-07 M

O=C1CN2CCN(CC2)S(=O)(=O)c2cccc(c2)Nc2nccc(n2)-c2ccc(nc2)NCCCN1 [Compound 116]
IC50 (EF2K [1]): 7.76e-06 M
IC50 (EF2K [2]): > 3.02e-05 M
remaining activity at 1 µM [3]: 14%
IC50 [3]: 4.47e-07 M

O=C1CN2CCN(CC2)Cc2cccc(c2)Nc2nccc(n2)-c2ccc(nc2)CN(C(=O)C2CC2)CCN1 [Compound 44]
IC50 (EF2K [1]): 8.51e-08 M
IC50 (EF2K [2]): 2.4e-06 M
remaining activity at 1 µM [3]: 10.2%
IC50 [3]: 3.02e-07 M

O=C1CN2CCN(Cc3cccc(c3)Nc3nccc(n3)-c3ccc(nc3)NCCCN1)C(CO)C2 (stereo not drawn) [Compound 46]
IC50 (EF2K [1]): 1.66e-07 M
IC50 (EF2K [2]): 4.9e-06 M
remaining activity at 1 µM [3]: 3.73%
IC50 [3]: 2.69e-08 M

O=C1CN2CCN(CC2)Cc2cccc(c2)Nc2nccc(n2)-c2ccc(nc2)NCCN1 [Compound 119]
IC50 (EF2K [1]): 7.94e-07 M
IC50 (EF2K [2]): 5.01e-06 M
remaining activity at 1 µM [3]: 15.7%
IC50 [3]: 1.7e-07 M

CN1CCCN(C)c2ccc(cn2)-c2ccnc(n2)Nc2cccc(c2)CN2CCN(CC1=O)CC2COCCO (stereo not drawn) [Compound 103]
IC50 (EF2K [1]): 1.95e-07 M
IC50 (EF2K [2]): 1.86e-05 M
remaining activity at 1 µM [3]: 28.3%
IC50 [3]: 6.76e-07 M

CN1CCCN(C)c2ccc(cn2)-c2ccnc(n2)Nc2cccc(c2)CN2CCN(CC2)C(=O)C1 [Compound 83]
IC50 (EF2K [1]): 1.78e-06 M
IC50 (EF2K [2]): > 3.02e-05 M
remaining activity at 1 µM [3]: 3.25%
IC50 [3]: 6.92e-08 M

COC(=O)C1CN2CCN1Cc1cccc(c1)Nc1nccc(n1)-c1ccc(nc1)N(C)CCCN(C)C(=O)C2 (stereo not drawn) [Compound 55]
IC50 (EF2K [1]): 1.45e-07 M
IC50 (EF2K [2]): > 3.02e-05 M
IC50 [3]: 8.91e-07 M

O=C1CN2CCN(CC2)Cc2cccc(c2)Nc2nccc(n2)-c2ccc(nc2)N2CC(O)CC2CCN1 (single isomer, unassigned) [Compound 91]
IC50 (EF2K [1]): 1.17e-08 M
IC50 (EF2K [2]): 1.41e-06 M
IC50 [3]: 5.13e-06 M

CC(C)N1CCNc2ccc(cn2)-c2ccnc(n2)Nc2cccc(c2)CN2CCN(CC2)CC1=O [Compound 21]
IC50 (EF2K [1]): 1.1e-06 M
IC50 (EF2K [2]): 8.71e-06 M
remaining activity at 1 µM [3]: 23.6%
IC50 [3]: 5.01e-07 M

CN1CCN(C)c2ccc(cn2)-c2ccnc(n2)Nc2ccc(O)c(c2)CN2CCN(CC2)CC1=O [Compound 131]
IC50 (EF2K [1]): 4.57e-07 M
IC50 (EF2K [2]): 7.59e-06 M
remaining activity at 1 µM [3]: 17.3%
IC50 [3]: 1.74e-07 M

NS(=O)(=O)N1CCNC(=O)CN2CCN(CC2)Cc2cccc(c2)Nc2nccc(n2)-c2ccc(nc2)C1 [Compound 134]
IC50 (EF2K [1]): 1.29e-06 M
IC50 (EF2K [2]): > 1e-05 M
remaining activity at 1 µM [3]: 4.78%
IC50 [3]: 6.46e-08 M

O=C1CN2CCN(CC2)Cc2cccc(c2)Nc2nccc(n2)-c2ccc(nc2)CN(CC2CCOCC2)CCN1 [Compound 39]
IC50 (EF2K [1]): 1.2e-06 M
IC50 (EF2K [2]): 3.09e-06 M
remaining activity at 1 µM [3]: 30.7%

O=C1CN2CCN(Cc3cccc(c3)Nc3nccc(n3)-c3ccc(nc3)NCCCN1)C(CO)C2 (single isomer, unassigned) [Compound 47]
IC50 (EF2K [1]): < 3.02e-08 M
IC50 (EF2K [2]): 4.57e-06 M
IC50 [3]: 8.32e-08 M
VPS34_1microM_% of cntrl [3]: 7.88 % of cntrl

CN1CCCN(C)c2ccc(cn2)-c2ccnc(n2)Nc2cccc(c2)CN2CCN(CC1=O)CC2COCCN1CCOCC1 (stereo not drawn) [Compound 98]
IC50 (EF2K [1]): 1.48e-07 M
IC50 (EF2K [2]): 2.75e-05 M
remaining activity at 1 µM [3]: 33.9%

CN1CCCN(C)c2ccc(cn2)-c2ccnc(n2)Nc2ccnc(c2)CN2CCN(CC2)CC1=O [Compound 32]
IC50 (EF2K [1]): 1.17e-07 M
IC50 (EF2K [2]): 5.13e-06 M
remaining activity at 1 µM [3]: 11.1%
IC50 [3]: 1.45e-07 M

CN1CCCN(C)c2ccc(cn2)-c2ccnc(n2)Nc2cccc(c2)CN2CCN(CC1=O)C(CO)C2 (single isomer, unassigned) [Compound 95]
IC50 (EF2K [1]): 8.32e-07 M
IC50 (EF2K [2]): > 3.02e-05 M
remaining activity at 1 µM [3]: 18.8%
IC50 [3]: 3.47e-07 M

O=C1CN2CCN(CC2)Cc2cccc(c2)Nc2nccc(n2)-c2ccc(nc2)N2CC(O)CC2CCN1 (single isomer, unassigned) [Compound 90]
IC50 (EF2K [1]): 9.33e-06 M
IC50 (EF2K [2]): > 3.02e-05 M
IC50 [3]: 2.09e-07 M
VPS34_1microM_% of cntrl [3]: 15.81 % of cntrl

CN1CCCN(C)c2ccc(cn2)-c2ccnc(n2)Nc2cccc(c2)CCN2CCN(CC2)CC1=O [Compound 29]
IC50 (EF2K [1]): 1.74e-05 M
IC50 (EF2K [2]): > 3.02e-05 M
remaining activity at 1 µM [3]: 5.67%
IC50 [3]: 2e-07 M

CN1CCCN(C)c2ccc(cn2)-c2ccnc(n2)Nc2cccc(c2)CC2CCN(CC2)CC1=O [Compound 109]
IC50 (EF2K [1]): 1.35e-06 M
IC50 (EF2K [2]): > 3.02e-05 M
remaining activity at 1 µM [3]: 14.7%
IC50 [3]: 2.88e-07 M

CN(C)C(=O)c1ccc2cc1CN1CCN(CC1)CC(=O)NCCCNc1ccc(cn1)-c1ccnc(n1)N2 [Compound 18]
IC50 (EF2K [1]): 1.91e-06 M
IC50 (EF2K [2]): > 3.02e-05 M
remaining activity at 1 µM [3]: 23.4%
IC50 [3]: 9.12e-07 M

N#CCCN1CCCNC(=O)CN2CCN(Cc3cccc(c3)Nc3nccc(n3)-c3ccc1nc3)C(CO)C2 (stereo not drawn) [Compound 54]
IC50 (EF2K [1]): 9.12e-07 M
IC50 (EF2K [2]): > 3.02e-05 M
remaining activity at 1 µM [3]: 4.02%
IC50 [3]: 8.51e-08 M

CN1CCCN(C)c2ccc(cn2)-c2ccnc(n2)Nc2cccc(c2)CN2CCN(CC1=O)CC2COCCO (single isomer, unassigned) [Compound 105]
IC50 (EF2K [1]): 8.71e-08 M
IC50 (EF2K [2]): 1.78e-05 M
IC50 [3]: 9.77e-07 M
VPS34_1microM_% of cntrl [3]: 28.59 % of cntrl
